Test results: patent US9896435B2, “N-pyrrolidinyl,N′-pyrazolyl-urea, thiourea, guanidine and cyanoguanidine compounds as TrkA kinase inhibitors” (Array BioPharma Inc., priority 2012, dated 2018)

Assays:
Test in all cases: KinaseProfiler off-target kinase profiling
Type in all cases: biochemical
Conditions in all cases: 10 μM, ATP near Km
AKT1 = AKT1 (Homo sapiens (Human), UniProt P31749)
Protocol: (§1) Two representative compounds (Example 2, 14) of the invention were tested for off-target kinase activity at a concentration of 10 μM by Millipore, Inc. in their KinaseProfiler™ service against all the kinases available in their full kinase panel. These compounds were run in duplicate at a concentration of ATP near the Km for each individual kinase according to Millipore's specifications. The results are shown in Table B. Data are reported as percent of control (POC) and are the average of the two replicates.

AKT2 = AKT2 (Homo sapiens (Human), UniProt P31751)
Protocol: as §1

AKT3 = AKT3 (Homo sapiens (Human), UniProt Q9Y243)
Protocol: as §1

ALK = ALK (Homo sapiens (Human), UniProt Q9UM73)
Protocol: as §1

Axl = Axl (Homo sapiens (Human), UniProt P30530)
Protocol: as §1

BrSK1 = BrSK1 (Homo sapiens (Human), UniProt Q8TDC3)
Protocol: as §1

CAMK2d = CAMK2d (Homo sapiens (Human), UniProt Q13557)
Protocol: as §1

CAMK2g = CAMK2g (Homo sapiens (Human), UniProt Q13555)
Protocol: as §1

CDK1/cyclinB = CDK1/cyclinB (Homo sapiens (Human), UniProt P06493)
Protocol: as §1

CDK2/cyclinE = CDK2/cyclinE (Homo sapiens (Human), UniProt P24941)
Protocol: as §1

CLK2 = CLK2 (Homo sapiens (Human), UniProt P49760)
Protocol: as §1

CLK3 = CLK3 (Homo sapiens (Human), UniProt P49761)
Protocol: as §1

DCAMKL2 = DCAMKL2 (Homo sapiens (Human), UniProt Q8N568)
Protocol: as §1

EphB2 = EphB2 (Homo sapiens (Human), UniProt P29323)
Protocol: as §1

EphB3 = EphB3 (Homo sapiens (Human), UniProt P54753)
Protocol: as §1

Fyn = Fyn (Homo sapiens (Human), UniProt P06241)
Protocol: as §1

GRK7 = GRK7 (Homo sapiens (Human), UniProt Q8WTQ7)
Protocol: as §1

Haspin = Haspin (Homo sapiens (Human), UniProt Q8TF76)
Protocol: as §1

Hck = Hck (Homo sapiens (Human), UniProt P08631)
Protocol: as §1

IGF-1R = IGF-1R (Homo sapiens (Human), UniProt P08069)
Protocol: as §1

JNK2alpha2 = JNK2alpha2 (Homo sapiens (Human), UniProt P45984)
Protocol: as §1

LOK = LOK (Homo sapiens (Human), UniProt O94804)
Protocol: as §1

MAPKAP-K2 = MAPKAP-K2 (Homo sapiens (Human), UniProt P49137)
Protocol: as §1

MKK4_m = MKK4_m (Mus musculus (Mouse), UniProt P47809)
Protocol: as §1

MSK2 = MSK2 (Homo sapiens (Human), UniProt O75676)
Protocol: as §1

NEK11 = NEK11 (Homo sapiens (Human), UniProt Q8NG66)
Protocol: as §1

NLK = NLK (Homo sapiens (Human), UniProt Q9UBE8)
Protocol: as §1

PAK6 = PAK6 (Homo sapiens (Human), UniProt Q9NQU5)
Protocol: as §1

PDGFRalpha = PDGFRalpha (Homo sapiens (Human), UniProt P16234)
Protocol: as §1

PKCbetaI = PKCbetaI (Homo sapiens (Human), UniProt P05771)
Protocol: as §1

PKCepsilon = PKCepsilon (Homo sapiens (Human), UniProt Q02156)
Protocol: as §1

Plk2 = Plk2 (Homo sapiens (Human), UniProt Q9NYY3)
Protocol: as §1

Ret = Ret (Homo sapiens (Human), UniProt P07949)
Protocol: as §1

Ron = Ron (Homo sapiens (Human), UniProt Q04912)
Protocol: as §1

Ros = Ros (Homo sapiens (Human), UniProt P08922)
Protocol: as §1

SGK3 = SGK3 (Homo sapiens (Human), UniProt Q96BR1)
Protocol: as §1

SIK = SIK (Homo sapiens (Human), UniProt P57059)
Protocol: as §1

TAO3 = TAO3 (Homo sapiens (Human), UniProt Q9H2K8)
Protocol: as §1

c-RAF = c-RAF (Homo sapiens (Human), UniProt P04049, Y340D/Y341D)
Protocol: as §1

p38beta = p38beta (Homo sapiens (Human), UniProt Q15759)
Protocol: as §1

Chain of SGK3 (Q96BR1 whole entry): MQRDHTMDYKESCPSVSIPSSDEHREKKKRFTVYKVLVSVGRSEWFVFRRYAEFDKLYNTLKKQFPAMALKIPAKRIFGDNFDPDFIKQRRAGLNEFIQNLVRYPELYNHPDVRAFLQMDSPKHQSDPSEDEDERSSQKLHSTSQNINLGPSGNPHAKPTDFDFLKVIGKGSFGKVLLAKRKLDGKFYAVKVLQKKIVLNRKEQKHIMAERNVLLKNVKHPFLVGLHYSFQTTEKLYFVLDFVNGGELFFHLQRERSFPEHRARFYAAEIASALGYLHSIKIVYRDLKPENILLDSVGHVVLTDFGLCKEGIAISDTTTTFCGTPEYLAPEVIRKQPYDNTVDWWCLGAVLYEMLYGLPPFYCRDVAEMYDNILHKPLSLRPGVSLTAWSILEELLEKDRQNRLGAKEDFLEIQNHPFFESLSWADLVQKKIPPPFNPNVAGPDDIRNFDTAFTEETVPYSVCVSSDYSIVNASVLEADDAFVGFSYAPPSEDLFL
Chain of Hck (P08631 whole entry): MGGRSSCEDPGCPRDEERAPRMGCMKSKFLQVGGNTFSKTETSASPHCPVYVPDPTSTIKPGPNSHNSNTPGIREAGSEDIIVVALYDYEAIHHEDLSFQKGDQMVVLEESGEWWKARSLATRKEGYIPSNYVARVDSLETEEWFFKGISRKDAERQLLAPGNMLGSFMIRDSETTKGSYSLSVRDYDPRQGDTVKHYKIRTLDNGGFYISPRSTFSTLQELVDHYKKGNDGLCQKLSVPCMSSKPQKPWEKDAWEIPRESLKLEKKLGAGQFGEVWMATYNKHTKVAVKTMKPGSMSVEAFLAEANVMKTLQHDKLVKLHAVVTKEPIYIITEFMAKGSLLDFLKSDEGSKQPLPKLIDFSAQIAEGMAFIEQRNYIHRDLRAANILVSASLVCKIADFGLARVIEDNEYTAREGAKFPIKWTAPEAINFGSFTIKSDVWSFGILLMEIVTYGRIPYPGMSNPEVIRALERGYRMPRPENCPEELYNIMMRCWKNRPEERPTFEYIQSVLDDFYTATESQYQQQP
Chain of EphB3 (P54753 34-998): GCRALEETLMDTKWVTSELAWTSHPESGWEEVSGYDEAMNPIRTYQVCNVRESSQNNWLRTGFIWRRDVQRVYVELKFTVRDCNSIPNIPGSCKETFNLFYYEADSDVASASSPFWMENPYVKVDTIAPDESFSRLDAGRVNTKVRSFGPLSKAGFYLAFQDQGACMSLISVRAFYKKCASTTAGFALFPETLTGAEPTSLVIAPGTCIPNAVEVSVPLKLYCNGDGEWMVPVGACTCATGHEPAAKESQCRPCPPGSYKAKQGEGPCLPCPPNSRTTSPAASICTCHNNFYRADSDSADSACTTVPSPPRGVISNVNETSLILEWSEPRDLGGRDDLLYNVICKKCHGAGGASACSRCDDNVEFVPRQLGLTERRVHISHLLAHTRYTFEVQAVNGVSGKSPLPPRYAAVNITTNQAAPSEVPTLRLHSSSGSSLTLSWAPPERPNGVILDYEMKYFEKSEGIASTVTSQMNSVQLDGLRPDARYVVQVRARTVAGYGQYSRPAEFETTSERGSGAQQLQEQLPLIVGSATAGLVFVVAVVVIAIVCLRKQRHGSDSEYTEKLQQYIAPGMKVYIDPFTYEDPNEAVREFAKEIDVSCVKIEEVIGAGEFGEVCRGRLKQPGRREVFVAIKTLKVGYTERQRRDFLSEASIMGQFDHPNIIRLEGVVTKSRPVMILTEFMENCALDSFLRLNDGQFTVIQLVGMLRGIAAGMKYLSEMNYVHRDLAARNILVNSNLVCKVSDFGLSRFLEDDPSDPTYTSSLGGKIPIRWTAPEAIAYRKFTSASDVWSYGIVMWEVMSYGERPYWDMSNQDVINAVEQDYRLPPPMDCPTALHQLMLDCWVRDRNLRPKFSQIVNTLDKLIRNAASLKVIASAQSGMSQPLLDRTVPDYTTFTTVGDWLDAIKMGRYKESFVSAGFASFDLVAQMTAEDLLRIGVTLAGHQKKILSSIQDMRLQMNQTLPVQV
Chain of Plk2 (Q9NYY3 whole entry): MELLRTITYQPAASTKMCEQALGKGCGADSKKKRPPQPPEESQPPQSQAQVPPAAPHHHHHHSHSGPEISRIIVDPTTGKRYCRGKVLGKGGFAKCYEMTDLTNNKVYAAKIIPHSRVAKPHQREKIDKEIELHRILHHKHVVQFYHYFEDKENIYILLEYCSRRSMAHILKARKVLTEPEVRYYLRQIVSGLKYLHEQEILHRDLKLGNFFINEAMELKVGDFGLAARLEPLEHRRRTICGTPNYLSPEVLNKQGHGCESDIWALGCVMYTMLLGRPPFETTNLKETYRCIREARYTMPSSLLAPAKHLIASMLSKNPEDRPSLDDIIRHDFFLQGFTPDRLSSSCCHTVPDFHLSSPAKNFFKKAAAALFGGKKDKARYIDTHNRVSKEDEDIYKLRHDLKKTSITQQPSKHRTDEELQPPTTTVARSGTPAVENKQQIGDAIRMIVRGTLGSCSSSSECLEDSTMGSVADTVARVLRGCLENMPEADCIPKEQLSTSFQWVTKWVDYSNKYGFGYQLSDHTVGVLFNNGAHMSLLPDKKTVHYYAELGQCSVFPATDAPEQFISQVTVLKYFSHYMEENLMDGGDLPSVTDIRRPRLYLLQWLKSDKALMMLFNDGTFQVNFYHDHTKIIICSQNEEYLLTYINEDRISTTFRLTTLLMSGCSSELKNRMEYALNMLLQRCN
Chain of Ron (Q04912 25-1400): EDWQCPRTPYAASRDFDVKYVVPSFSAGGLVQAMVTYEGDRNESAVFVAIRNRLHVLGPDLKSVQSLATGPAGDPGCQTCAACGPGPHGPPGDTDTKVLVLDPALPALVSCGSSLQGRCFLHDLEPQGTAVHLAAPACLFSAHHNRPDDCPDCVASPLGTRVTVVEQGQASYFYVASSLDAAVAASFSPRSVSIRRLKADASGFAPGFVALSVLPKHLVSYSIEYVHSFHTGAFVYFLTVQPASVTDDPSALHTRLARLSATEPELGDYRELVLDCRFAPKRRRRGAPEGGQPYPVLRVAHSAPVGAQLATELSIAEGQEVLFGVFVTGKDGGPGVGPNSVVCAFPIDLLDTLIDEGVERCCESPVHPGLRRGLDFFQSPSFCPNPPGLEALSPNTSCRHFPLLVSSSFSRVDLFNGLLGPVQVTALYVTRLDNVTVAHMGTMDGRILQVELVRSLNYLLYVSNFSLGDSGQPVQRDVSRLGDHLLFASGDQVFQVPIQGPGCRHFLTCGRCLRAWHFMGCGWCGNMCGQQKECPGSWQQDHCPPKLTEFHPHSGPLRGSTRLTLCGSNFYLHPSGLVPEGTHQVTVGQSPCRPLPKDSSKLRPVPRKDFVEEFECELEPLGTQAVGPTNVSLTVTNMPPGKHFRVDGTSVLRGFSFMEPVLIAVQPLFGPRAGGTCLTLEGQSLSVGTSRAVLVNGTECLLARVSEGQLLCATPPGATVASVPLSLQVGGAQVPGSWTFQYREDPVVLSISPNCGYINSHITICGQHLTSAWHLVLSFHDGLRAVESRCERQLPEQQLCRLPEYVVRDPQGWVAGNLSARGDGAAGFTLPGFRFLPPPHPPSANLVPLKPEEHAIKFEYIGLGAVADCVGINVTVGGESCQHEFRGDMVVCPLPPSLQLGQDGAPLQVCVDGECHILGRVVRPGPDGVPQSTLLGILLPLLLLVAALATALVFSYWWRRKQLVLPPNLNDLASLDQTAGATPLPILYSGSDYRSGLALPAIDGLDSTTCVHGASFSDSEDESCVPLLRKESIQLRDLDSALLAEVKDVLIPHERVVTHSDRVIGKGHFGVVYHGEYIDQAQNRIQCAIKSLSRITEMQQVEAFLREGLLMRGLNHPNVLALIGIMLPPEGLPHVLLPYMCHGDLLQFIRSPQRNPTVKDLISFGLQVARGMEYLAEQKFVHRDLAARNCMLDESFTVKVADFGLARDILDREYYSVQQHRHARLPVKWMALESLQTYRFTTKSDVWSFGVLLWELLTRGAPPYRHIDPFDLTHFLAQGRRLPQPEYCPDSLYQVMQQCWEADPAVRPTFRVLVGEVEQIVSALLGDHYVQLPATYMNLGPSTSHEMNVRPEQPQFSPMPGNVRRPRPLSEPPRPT
Chain of p38beta (Q15759 whole entry): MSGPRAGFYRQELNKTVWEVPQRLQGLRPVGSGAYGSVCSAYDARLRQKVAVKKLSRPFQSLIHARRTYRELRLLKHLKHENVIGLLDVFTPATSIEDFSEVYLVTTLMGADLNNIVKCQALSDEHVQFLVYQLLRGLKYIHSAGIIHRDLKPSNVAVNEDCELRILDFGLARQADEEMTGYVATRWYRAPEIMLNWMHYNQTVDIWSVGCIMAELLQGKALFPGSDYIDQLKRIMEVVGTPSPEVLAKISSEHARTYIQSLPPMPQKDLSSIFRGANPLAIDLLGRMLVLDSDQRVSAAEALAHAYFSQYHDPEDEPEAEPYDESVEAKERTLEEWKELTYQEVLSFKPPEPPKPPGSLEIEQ
Chain of Fyn (P06241 whole entry): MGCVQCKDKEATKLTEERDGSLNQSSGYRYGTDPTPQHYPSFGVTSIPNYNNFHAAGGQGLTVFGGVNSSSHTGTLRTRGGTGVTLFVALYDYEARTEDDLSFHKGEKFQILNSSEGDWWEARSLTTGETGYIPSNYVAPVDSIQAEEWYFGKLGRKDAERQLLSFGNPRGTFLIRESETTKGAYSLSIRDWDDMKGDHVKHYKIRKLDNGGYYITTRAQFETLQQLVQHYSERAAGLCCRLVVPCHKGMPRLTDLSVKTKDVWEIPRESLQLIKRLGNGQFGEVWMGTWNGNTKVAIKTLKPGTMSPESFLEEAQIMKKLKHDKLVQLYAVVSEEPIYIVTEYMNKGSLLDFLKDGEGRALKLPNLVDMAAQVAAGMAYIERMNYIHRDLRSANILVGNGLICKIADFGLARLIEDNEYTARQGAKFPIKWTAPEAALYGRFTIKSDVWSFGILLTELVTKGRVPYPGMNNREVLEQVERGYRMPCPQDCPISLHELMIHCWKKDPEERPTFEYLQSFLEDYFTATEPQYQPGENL

Avg POC (AKT1) [POC] | Avg POC (AKT2) [POC] | Avg POC (AKT3) [POC] | Avg POC (ALK) [POC] | Avg POC (Axl) [POC] | Avg POC (BrSK1) [POC] | Avg POC (CAMK2d) [POC] | Avg POC (CAMK2g) [POC] | Avg POC (CDK1/cyclinB) [POC] | Avg POC (CDK2/cyclinE) [POC] | Avg POC (CLK2) [POC] | Avg POC (CLK3) [POC] | Avg POC (DCAMKL2) [POC] | Avg POC (EphB2) [POC] | Avg POC (EphB3) [POC] | Avg POC (Fyn) [POC] | Avg POC (GRK7) [POC] | Avg POC (Haspin) [POC] | Avg POC (Hck) [POC] | Avg POC (IGF-1R) [POC] | other results | Structure (SMILES)
109.5 | 113 | 110 | 111 | 117 | 104 | 91.5 | 89.5 | 104 | 103 | 125 | 94 | 105 | 109.5 | 105.5 | 97 | 104 | 71.5 | 116.5 | 63 | Avg POC (JNK2alpha2): 100 POC; Avg POC (LOK): 109 POC; Avg POC (MAPKAP-K2): 111 POC; Avg POC (MKK4_m): 115 POC; Avg POC (MSK2): 120 POC; Avg POC (NEK11): 97 POC; Avg POC (NLK): 111.5 POC; Avg POC (PAK6): 106 POC; Avg POC (PDGFRalpha): 110.5 POC; Avg POC (PKCbetaI): 95 POC; Avg POC (PKCepsilon): 103.5 POC; Avg POC (Plk2): 99.5 POC; Avg POC (Ret): 106.5 POC; Avg POC (Ron): 122.5 POC; Avg POC (Ros): 105 POC; Avg POC (SGK3): 106 POC; Avg POC (SIK): 106.5 POC; Avg POC (TAO3): 97.5 POC; Avg POC (c-RAF): 103.5 POC; Avg POC (p38beta): 101.5 POC | COCCN1C[C@@H](NC(=O)Nc2c(C)c(-c3ccnc(C)c3)nn2-c2ccccc2)[C@H](c2ccc(F)c(F)c2)C1 [Example 2, 1-((3S,4R)-4-(3,4-difluorophenyl)-1-(2-methoxyethyl)pyrrolidin-3-yl)-3-(4-methyl-3-(2-methylpyridin-4-yl)-1-phenyl-1H-pyrazol-5-yl)urea]
98.5 | 119.5 | 104 | 102.5 | 103 | 94 | 105.5 | 99 | 97 | 98.5 | 111.5 | 94 | 114.5 | 120 | 138.5 | 91.5 | 97 | 96 | 108.5 | 79 | Avg POC (JNK2alpha2): 97 POC; Avg POC (LOK): 105 POC; Avg POC (MAPKAP-K2): 101 POC; Avg POC (MKK4_m): 116.5 POC; Avg POC (MSK2): 116 POC; Avg POC (NEK11): 91 POC; Avg POC (NLK): 108.5 POC; Avg POC (PAK6): 102 POC; Avg POC (PDGFRalpha): 114.5 POC; Avg POC (PKCbetaI): 101 POC; Avg POC (PKCepsilon): 114.5 POC; Avg POC (Plk2): 102 POC; Avg POC (Ret): 84 POC; Avg POC (Ron): 104 POC; Avg POC (Ros): 91 POC; Avg POC (SGK3): 107 POC; Avg POC (SIK): 96 POC; Avg POC (TAO3): 100.5 POC; Avg POC (c-RAF): 89 POC; Avg POC (p38beta): 93 POC | COCCN1C[C@@H](NC(=O)Nc2c(C)c(-c3cnc(C)nc3)nn2-c2ccccc2)[C@H](c2cc(F)cc(F)c2)C1 [Example 14, 1-((3S,4R)-4-(3,5-difluorophenyl)-1-(2-methoxyethyl)pyrrolidin-3-yl)-3-(4-methyl-3-(2-methylpyrimidin-5-yl)-1-phenyl-1H-pyrazol-5-yl)urea]
